# Test results reported in patent US12213984B2, “Immunoregulatory agent” (KYUSHU UNIVERSITY, NATIONAL UNIVERSITY CORPORATION, priority 2015, dated 2025).
# Target: T1, DOCK2DHR-2 (lobe B and lobe C of the DHR-2 domain of DOCK2) (Homo sapiens, UniProt Q92608)
# T1 construct: polypeptide fragments corresponding to a DHR-2 domain including the lobe B and the lobe C of DOCK2; Histidine-SUMO (N); made in house; host or cells: E. coli Arctic express DE3 (pET28a); Rac in E. coli BL21 DE3 (pGEX-6P-1)
# T1 sequence (Q92608 1196-1622): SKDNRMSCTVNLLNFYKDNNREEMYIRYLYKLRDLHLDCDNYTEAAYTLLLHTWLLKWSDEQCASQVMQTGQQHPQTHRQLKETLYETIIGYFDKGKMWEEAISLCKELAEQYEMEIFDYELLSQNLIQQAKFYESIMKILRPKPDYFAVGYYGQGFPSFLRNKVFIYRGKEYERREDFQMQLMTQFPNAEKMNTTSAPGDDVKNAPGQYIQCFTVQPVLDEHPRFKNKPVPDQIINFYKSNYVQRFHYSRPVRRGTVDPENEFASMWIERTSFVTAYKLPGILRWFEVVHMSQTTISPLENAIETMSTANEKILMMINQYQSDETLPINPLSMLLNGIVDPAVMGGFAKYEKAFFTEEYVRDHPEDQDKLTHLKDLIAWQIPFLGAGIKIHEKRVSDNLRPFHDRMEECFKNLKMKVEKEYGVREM
# Assay: in-vitro GEF assay, Rac activation by DOCK2 DHR-2 domain with various steroid compounds (Experimental Example 2)
# Assay type: biochemical
# Details: Experimental Example 2, Table 1; read-out: IC50 against the Rac activation by DOCK2DHR-2
# Method: An examination was performed using various steroid compounds to test their effects on the Rac activation induced by proteins composed of the lobe B and the lobe C of the DHR-2 domain of DOCK2.
# As the steroid compounds, cholesterol 3-sulfate (hereinafter, referred to as “C3S” in some cases), cholesterol, cholesterol 3-acetate (hereinafter, referred to as “C3A” in some cases), pregnenolone 3-sulfate (hereinafter, referred to as “PREG3S” in some cases), dehydroepiandrosterone (hereinafter, referred to as “DHEA” in some cases), dehydroepiandrosterone 3-sulfate (hereinafter, referred to as “DHEA3S” in some cases), estrone 3-sulfate (hereinafter, referred to as “Estrone3S” in some cases), estriol 3-sulfate (hereinafter, referred to as “Estriol3S” in some cases), and estradiol 3-sulfate (hereinafter, referred to as “Estradiol3S” in some cases) were used.
# More specifically, a DOCK2-DHR-2 domain protein prepared by the same method as described above was incubated for 20 minutes at room temperature in the presence of various steroid compounds at a predetermined concentration dissolved in DMSO or in the presence of DMSO alone (control) under the shielded condition from light, thereby preparing a pretreated substance of GEF. The concentration of DMSO was adjusted such that it became 3% (1% in the final reaction solution) in all samples. Then, by in-vitro GEF assay in which Rac and Bodipy-FL-GTP prepared by the same method as described above were used, Rac activation by the DHR-2 domain was measured.
row,SMILES,IC50
1,"CC(=O)O[C@H]1CC[C@@]2(C)C(=CC[C@H]3[C@@H]4CC[C@H]([C@H](C)CCCC(C)C)[C@@]4(C)CC[C@@H]32)C1 [C3A, cholesterol 3-acetate]",> 200 µM
2,"CC(C)CCC[C@@H](C)[C@H]1CC[C@H]2[C@@H]3CC=C4C[C@@H](O)CC[C@]4(C)[C@H]3CC[C@]12C [Cholesterol, cholesterol]",> 200 µM
3,"C[C@]12CC[C@H](OS(=O)(=O)O)CC1=CC[C@@H]1[C@@H]2CC[C@]2(C)C(=O)CC[C@@H]12 [DHEA3S, dehydroepiandrosterone 3-sulfate]",> 200 µM
4,"C[C@]12CC[C@@H]3c4ccc(OS(=O)(=O)O)cc4CC[C@H]3[C@@H]1CC[C@@H]2O [Estradiol3S, estradiol 3-sulfate]",> 200 µM
5,"C[C@]12CC[C@@H]3c4ccc(OS(=O)(=O)O)cc4CC[C@H]3[C@@H]1C[C@@H](O)[C@@H]2O [Estriol3S, estriol 3-sulfate]",> 200 µM
6,"C[C@]12CC[C@@H]3c4ccc(OS(=O)(=O)O)cc4CC[C@H]3[C@@H]1CCC2=O [Estrone3S, estrone 3-sulfate]",> 200 µM
7,"CC(=O)C1CCC2C3CC=C4CC(OS(=O)(=O)O)CCC4(C)C3CCC12C (centres unmarked) [PREG3S, pregnenolone 3-sulfate]",76.6 µM

# Same assay, conditions: IC50 against the Rac activation by DOCK2DHR-2, Experimental Example 2, Table 1
row,SMILES,IC50
1,"C[C@]12CC[C@H](O)CC1=CC[C@@H]1[C@@H]2CC[C@]2(C)C(=O)CC[C@@H]12 [DHEA, dehydroepiandrosterone]",> 200 µM
